Assay results published in patent publication US9963448B2, “Bicyclic inhibitors of PAD4” (Padlock Therapeutics, Inc., priority 2015, dated 2018).
pIC50: −log10 of the molar value. Structures can show the parent of a compound that is named as a salt. Where two headings read alike, the source gives them in different places.

Assays:
[1] = target: mPAD4 (Mus musculus, UniProt Q9Z183); assay: mPAD4 RFMS PAD4 inhibition assay; assay type: biochemical; details: mPAD4, RFMS readout; for IC50 / mPAD4 RFMS pIC50: pIC50=−log(IC50); for IC50: read-out: mPAD4 RFMS pIC50 (converted); for pIC50: read-out: mPAD4 RFMS IC50;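 on mPAD4 RFMS pIC50: grade E means pIC50 at most 4 and F means pIC50 4.0 to 5.0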
mPAD4, sequence (Q9Z183 whole entry): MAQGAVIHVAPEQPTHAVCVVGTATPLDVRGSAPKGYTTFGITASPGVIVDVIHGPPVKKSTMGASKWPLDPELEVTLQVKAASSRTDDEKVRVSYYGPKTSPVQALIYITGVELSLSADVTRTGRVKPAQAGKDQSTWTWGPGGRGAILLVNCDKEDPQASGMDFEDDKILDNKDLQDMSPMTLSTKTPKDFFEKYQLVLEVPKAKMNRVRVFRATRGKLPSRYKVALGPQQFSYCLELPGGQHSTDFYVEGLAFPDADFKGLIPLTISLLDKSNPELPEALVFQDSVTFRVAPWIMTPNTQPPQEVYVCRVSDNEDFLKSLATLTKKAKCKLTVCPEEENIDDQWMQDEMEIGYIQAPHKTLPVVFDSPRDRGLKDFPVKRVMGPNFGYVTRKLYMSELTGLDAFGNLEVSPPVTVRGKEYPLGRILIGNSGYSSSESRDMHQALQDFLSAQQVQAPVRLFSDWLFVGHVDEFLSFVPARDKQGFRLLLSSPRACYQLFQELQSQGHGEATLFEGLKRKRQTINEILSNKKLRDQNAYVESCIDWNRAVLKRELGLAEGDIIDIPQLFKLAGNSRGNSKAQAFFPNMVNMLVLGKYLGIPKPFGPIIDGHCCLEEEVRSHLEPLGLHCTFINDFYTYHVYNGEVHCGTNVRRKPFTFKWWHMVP
Procedure: (§1) Compounds of the present invention were assayed as inhibitors of PAD4 using the assay protocol described below.
(§2) Compound stock solutions were stored at RT. […] Final assay conditions were as follows:
(§3) Total incubation time: 65 mins at 37° C.
(§4) Stop solution: 40 μl 5% TCA in ACN
(§5) The compound numbers correspond to the compound numbers in Table 1. […] The term pIC50=−log(IC50). […] “NA” stands for “not assayed.”

[2] = target: hPAD4 (Homo sapiens, UniProt Q9UM07); assay: hPAD4 RFMS (RapidFire mass spectrometry) PAD4 inhibition assay; assay type: biochemical; details: hPAD4 enzyme, RFMS readout; for IC50 / hPAD4 RFMS pIC50: pIC50=−log(IC50); for IC50: read-out: hPAD4 RFMS pIC50 (converted); for pIC50: read-out: hPAD4 RFMS IC50;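 on hPAD4 RFMS pIC50: grade E means pIC50 at most 4 and F means pIC50 4.0 to 5.0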
hPAD4, sequence (Q9UM07 whole entry): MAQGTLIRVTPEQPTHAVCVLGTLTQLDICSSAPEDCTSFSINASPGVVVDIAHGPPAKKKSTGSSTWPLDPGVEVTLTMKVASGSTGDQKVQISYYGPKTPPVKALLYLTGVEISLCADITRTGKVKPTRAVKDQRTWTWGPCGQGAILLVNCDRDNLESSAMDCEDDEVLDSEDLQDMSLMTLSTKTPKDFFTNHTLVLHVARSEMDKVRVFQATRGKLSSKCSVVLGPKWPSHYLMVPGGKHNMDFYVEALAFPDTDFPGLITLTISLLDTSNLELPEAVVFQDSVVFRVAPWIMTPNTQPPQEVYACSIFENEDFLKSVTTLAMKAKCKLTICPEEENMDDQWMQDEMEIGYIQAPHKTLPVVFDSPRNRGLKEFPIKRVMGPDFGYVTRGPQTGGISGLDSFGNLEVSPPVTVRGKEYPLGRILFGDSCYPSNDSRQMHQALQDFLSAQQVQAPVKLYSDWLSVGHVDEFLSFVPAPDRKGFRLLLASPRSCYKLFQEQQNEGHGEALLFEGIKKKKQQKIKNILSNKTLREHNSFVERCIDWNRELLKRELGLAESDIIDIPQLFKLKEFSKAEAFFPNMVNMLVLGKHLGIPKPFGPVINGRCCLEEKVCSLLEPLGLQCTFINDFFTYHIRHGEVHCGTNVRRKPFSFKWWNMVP
Procedure: as §1, §2, §3, §4, §5

Row | IC50 [1] | pIC50 [1] | IC50 [2] | pIC50 [2] | mPAD4 RFMS pIC50 [1] | hPAD4 RFMS pIC50 [2] | SMILES
1 | 1 to 10 µM | 5.30 to 6.00 | 1 to 10 µM | 5.30 to 6.00 |  |  | COc1cc(C(=O)N2CCC(F)C(N)C2)cc2nc(-c3cc4cccnc4n3CC3CC3)n(C)c12 (racemic) [Compound I-75, 1-{2-[1-(Cyclopropylmethyl)-1H-pyrrolo[2,3-b]pyridin-2-yl]-7-methoxy-1-methyl-1H-1,3-benzodiazole-5-carbonyl}-4-fluoropiperidin-3-amine]
2 | 10 to 100 µM | < 5.00 | 10 to 100 µM | < 5.00 |  |  | COc1cc(C(=O)N2CCC3(CNCCC3(F)F)C2)cc2nc(-c3cc4cccnc4n3CC3CC3)n(C)c12 (racemic) [Compound I-97]
3 | > 100 µM | < 5.00 | > 100 µM | < 5.00 |  |  | COc1cc(C(=O)N2CC3CC(N)C2C3)cc2nc(-c3cc4cccnc4n3CC3CC3)n(C)c12 (racemic) [Compound I-99]
4 |  | < 5.00 |  | < 5.00 | E/F | E/F | COc1cc(C(=O)N2C[C@H](N)CC[C@H]2CO)cc2nc(-c3cc4cccnc4n3CC3CC3)n(C)c12 (racemic) [Compound I-220, Rac-[(2R,5S)-5-amino-1-{2-[1-(cyclopropylmethyl)-1H-pyrrolo[2,3-b]pyridin-2-yl]-7-methoxy-1-methyl-1H-1,3-benzodiazole-5-carbonyl}piperidin-2-yl]methanol]
5 | 1 to 10 µM | 5.00 to 5.30 | 1 to 10 µM | 5.30 to 6.00 |  |  | CO[C@@H]1CCN(C(=O)c2ccc3c(c2)nc(-c2cc4cccnc4n2CC2CC2)n3C)C[C@@H]1N (single isomer, unassigned) [Compound I-64]
6 | 10 to 100 µM | < 5.00 | 10 to 100 µM | < 5.00 |  |  | CO[C@H]1CCN(C(=O)c2ccc3c(c2)nc(-c2cc4cccnc4n2CC2CC2)n3C)C[C@H]1N (single isomer, unassigned) [Compound I-65]
7 |  | < 5.00 | 10 to 100 µM | < 5.00 | E/F |  | COc1cc(C(=O)N2C[C@@H](N)CC[C@@H]2CO)cc2nc(-c3cc4cccnc4n3CC3CC3)n(C)c12 (single isomer, unassigned) [Compound I-227]
8 | 1 to 10 µM | 5.30 to 6.00 | 1 to 10 µM | 5.00 to 5.30 |  |  | COc1cc(C(=O)N2C[C@H](N)CC[C@@H]2CO)cc2nc(-c3cc4cccnc4n3CC3CC3)n(C)c12 (single isomer, unassigned) [Compound I-228]
9 | 10 to 100 µM | < 5.00 | 1 to 10 µM | 5.00 to 5.30 |  |  | Cn1c(-c2cc3cncnc3n2CC2CC2)nc2cc(C(=O)N3CCC4CCNC4C3)ccc21 (centres unmarked) [Compound I-9, 2-[7-(Cyclopropylmethyl)-7H-pyrrolo[2,3-d]pyrimidin-6-yl]-1-methyl-5-{octahydro-1H-pyrrolo[2,3-c]pyridine-6-carbonyl}-1H-1,3-benzodiazole]

The remaining lines, values behind:

Row | SMILES | IC50 [1] | pIC50 [1] | IC50 [2] | pIC50 [2] | mPAD4 RFMS pIC50 [1] | hPAD4 RFMS pIC50 [2]
10 | CN[C@@H]1C[C@@H](O)CN(C(=O)c2cc(OC)c3c(c2)nc(-c2cc4cccnc4n2CC2CC2)n3C)C1 (racemic) [Compound I-77, Rel-(3R,5R)-1-{2-[1-(cyclopropylmethyl)-1H-pyrrolo[2,3-b]pyridin-2-yl]-7-methoxy-1-methyl-1H-1,3-benzodiazole-5-carbonyl}-5-(methylamino)piperidin-3-ol hydrochloride] | 10 to 100 µM | < 5.00 | 10 to 100 µM | < 5.00 |  | 
11 | COc1cc(C(=O)N2C[C@@H](N)C[C@H](O)C2)cc2nc(-c3cc4cccnc4n3CC3CC3)n(C)c12 (racemic) [Compound I-80] | 1 to 10 µM | 5.30 to 6.00 | 1 to 10 µM | 5.00 to 5.30 |  | 
12 | COc1cc(C(=O)N2CC(N)CC(C#N)C2)cc2nc(-c3cc4cccnc4n3CC3CC3)n(C)c12 (racemic) [Compound I-82, 5-Amino-1-{2-[1-(cyclopropylmethyl)-1H-pyrrolo[2,3-b]pyridin-2-yl]-7-methoxy-1-methyl-1H-1,3-benzodiazole-5-carbonyl}piperidine-3-carbonitrile] | 10 to 100 µM | < 5.00 | 10 to 100 µM | < 5.00 |  | 
13 | COc1cc(C(=O)N2CCC3OCCNC3C2)cc2nc(-c3cc4cccnc4n3CC3CC3)n(C)c12 (racemic) [Compound I-83] | 1 to 10 µM | 5.30 to 6.00 | 1 to 10 µM | 5.30 to 6.00 |  | 
14 | COc1cc(C(=O)N2CCC(OC(F)F)C(N)C2)cc2nc(-c3cc4cccnc4n3CC3CC3)n(C)c12 (racemic) [Compound I-86, rac-(3R,4S)-1-{2-[1-(cyclopropylmethyl)-1H-pyrrolo[2,3-b]pyridin-2-yl]-7-methoxy-1-methyl-1H-1,3-benzodiazole-5-carbonyl}-4-(difluoromethoxy)piperidin-3-amine] | < 1 µM | > 6.00 | < 1 µM | > 6.00 |  | 
15 | COc1cc(C(=O)N2CC3COCC3(CN)C2)cc2nc(-c3cc4cccnc4n3CC3CC3)n(C)c12 (racemic) [Compound I-96] | 10 to 100 µM | < 5.00 | 10 to 100 µM | < 5.00 |  | 
16 | CCn1c(-c2nc3cc(C(=O)N4CC5CCC4C5N)cc(OC)c3n2C)cc2ccc(OC)nc21 (racemic) [Compound I-136] | < 1 µM | > 6.00 | < 1 µM | > 6.00 |  | 
17 | CCn1c(-c2nc3cc(C(=O)N4C[C@H]5CC[C@@H]4[C@@H]5N)cc(OC)c3n2C)cc2cccnc21 (racemic) [Compound I-143] | < 1 µM | > 6.00 | < 1 µM | > 6.00 |  | 
18 | COc1cc(C(=O)N2C[C@H](N)CC[C@@H]2CO)cc2nc(-c3cc4cccnc4n3CC3CC3)n(C)c12 (racemic) [Compound I-221, rac-[(2R,5R)-5-amino-1-{2-[1-(cyclopropylmethyl)-1H-pyrrolo[2,3-b]pyridin-2-yl]-7-methoxy-1-methyl-1H-1,3-benzodiazole-5-carbonyl}piperidin-2-yl]methanol] | 1 to 10 µM | 5.30 to 6.00 | 10 to 100 µM | < 5.00 |  | 
19 | Cn1c(-c2cc3cccnc3n2CC2CC2)nc2cc(C(=O)N3CC[C@H]4CCN[C@H]4C3)cc(OC(F)F)c21 (single isomer, unassigned) [Compound I-24, hydrochloride] | 10 to 100 µM | < 5.00 | 10 to 100 µM | < 5.00 |  | 
20 | Cn1c(-c2cc3cccnc3n2CC2CC2)nc2cc(C(=O)N3CC[C@H]4CCN[C@H]4C3)cc(OC(F)F)c21 (single isomer, unassigned) [Compound I-25, hydrochloride] | 1 to 10 µM | 5.30 to 6.00 | 1 to 10 µM | 5.30 to 6.00 |  | 
21 | COc1cc(C(=O)N2C[C@H](N)CC[C@H]2CO)cc2nc(-c3cc4cccnc4n3CC3CC3)n(C)c12 (single isomer, unassigned) [Compound I-226] |  | < 5.00 |  | < 5.00 | E/F | E/F
22 | COc1cc(C(=O)N2C[C@@H](N)CC[C@H]2CO)cc2nc(-c3cc4cccnc4n3CC3CC3)n(C)c12 (single isomer, unassigned) [Compound I-229] | 1 to 10 µM | 5.00 to 5.30 | 10 to 100 µM | < 5.00 |  | 
23 | Cn1c(-c2cc3cccnc3n2CC2CC2)nc2cc(C(=O)N3CC[C@H]4CCN[C@H]4C3)ccc21 [Compound I-10] | 1 to 10 µM | 5.00 to 5.30 | 1 to 10 µM | 5.30 to 6.00 |  | 
